Measurements reported in patent US12371428B2 (Exelixis, Inc., priority 2019, dated 2025).
Where a name gives a salt, the structure may show the parent alone. Read-outs that look alike come from different tables or passages of the source.

Columns and labels:
[1] = molecular target: Met (phospho-Met, HGF-stimulated PC-3 prostate cancer cells) (Homo sapiens (Human), UniProt P08581); experiment: Met autophosphorylation ELISA in PC-3 cells (Example F); type: cell-based; details: cellular activity, read-out: c-Met IC50
Sequence of Met (phospho-Met, HGF-stimulated PC-3 prostate cancer cells) (P08581 25-1390): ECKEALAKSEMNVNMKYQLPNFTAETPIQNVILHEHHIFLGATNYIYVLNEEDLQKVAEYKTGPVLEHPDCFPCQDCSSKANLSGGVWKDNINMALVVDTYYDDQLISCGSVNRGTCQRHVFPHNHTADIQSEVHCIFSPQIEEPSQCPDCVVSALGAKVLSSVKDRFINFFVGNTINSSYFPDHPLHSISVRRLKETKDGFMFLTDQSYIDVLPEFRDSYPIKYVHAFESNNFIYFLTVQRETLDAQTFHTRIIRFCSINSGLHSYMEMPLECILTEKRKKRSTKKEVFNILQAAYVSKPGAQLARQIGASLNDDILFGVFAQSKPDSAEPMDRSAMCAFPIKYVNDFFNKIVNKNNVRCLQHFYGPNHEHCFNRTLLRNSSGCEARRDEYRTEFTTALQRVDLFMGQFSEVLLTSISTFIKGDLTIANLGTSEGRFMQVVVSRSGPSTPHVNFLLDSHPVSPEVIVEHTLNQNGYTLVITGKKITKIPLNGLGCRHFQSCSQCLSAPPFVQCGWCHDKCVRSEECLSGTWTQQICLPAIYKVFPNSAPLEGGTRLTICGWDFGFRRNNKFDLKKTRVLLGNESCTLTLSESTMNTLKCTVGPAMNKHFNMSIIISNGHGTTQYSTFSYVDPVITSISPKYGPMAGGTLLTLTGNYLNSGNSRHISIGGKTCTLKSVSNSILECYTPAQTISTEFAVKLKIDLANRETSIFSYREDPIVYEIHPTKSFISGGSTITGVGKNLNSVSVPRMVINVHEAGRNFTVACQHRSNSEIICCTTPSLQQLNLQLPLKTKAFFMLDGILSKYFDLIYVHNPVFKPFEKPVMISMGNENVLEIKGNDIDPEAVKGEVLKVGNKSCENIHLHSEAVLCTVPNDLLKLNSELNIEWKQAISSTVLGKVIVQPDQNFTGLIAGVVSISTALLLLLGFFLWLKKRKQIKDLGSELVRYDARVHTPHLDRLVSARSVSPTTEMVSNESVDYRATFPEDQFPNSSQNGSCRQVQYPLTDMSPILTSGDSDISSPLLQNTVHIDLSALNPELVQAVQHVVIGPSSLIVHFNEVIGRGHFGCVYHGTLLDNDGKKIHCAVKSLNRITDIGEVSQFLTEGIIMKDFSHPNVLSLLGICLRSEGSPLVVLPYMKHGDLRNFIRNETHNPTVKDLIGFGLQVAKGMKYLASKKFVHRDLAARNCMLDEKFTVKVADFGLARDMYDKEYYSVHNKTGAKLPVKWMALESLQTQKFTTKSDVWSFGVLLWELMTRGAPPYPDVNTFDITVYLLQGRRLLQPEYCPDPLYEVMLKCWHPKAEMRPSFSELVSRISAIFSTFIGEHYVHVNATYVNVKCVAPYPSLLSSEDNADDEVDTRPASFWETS
Method in brief: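 Sandwich ELISA for phospho-Met (panTyr) in PC-3 lysates. Cells starved 3 h serum-free, compound 1 h (8-pt curve, 0.3% DMSO), HGF 100 ng/mL 10 min. 100% = HGF + DMSO; 0% = HGF + reference inhibitor. IC50 by 4-parameter fit.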

[2] = molecular target: Human MET (residues 956-1390) (Homo sapiens (Human), UniProt P08581); experiment: Human Met kinase assay, HTRF KinEase (Example D-2); type: biochemical; details: read-out: c-Met IC50
Sequence of Human MET (residues 956-1390) (P08581 956-1390): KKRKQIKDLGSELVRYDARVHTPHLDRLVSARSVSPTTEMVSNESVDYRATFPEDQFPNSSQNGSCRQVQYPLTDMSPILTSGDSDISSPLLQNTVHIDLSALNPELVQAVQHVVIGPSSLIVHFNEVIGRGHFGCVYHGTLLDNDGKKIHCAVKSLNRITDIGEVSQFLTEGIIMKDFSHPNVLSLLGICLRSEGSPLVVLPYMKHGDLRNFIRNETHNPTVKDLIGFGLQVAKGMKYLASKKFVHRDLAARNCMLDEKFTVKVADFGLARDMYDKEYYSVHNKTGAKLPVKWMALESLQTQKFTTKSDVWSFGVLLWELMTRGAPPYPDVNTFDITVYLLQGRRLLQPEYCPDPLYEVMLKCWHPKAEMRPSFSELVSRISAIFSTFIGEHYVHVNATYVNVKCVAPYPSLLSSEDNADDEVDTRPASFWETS
Procedure: Kinase activity and compound inhibition were also investigated using the HTRF® KinEase assay (Cisbio Cat #62TKOPEB) per manufacturer's instructions. In short, compounds were delivered in 300 nL volumes at 10 different concentrations in DMSO (3% final) to empty 384-well assay plates (Corning cat #3824). A mixture of enzyme, […] biotynlated peptide substrate, and buffer in 10 μL volume was added. The assay was started upon the addition of ATP (at Km). The 10 μL reaction was incubated at room temperature. The reaction was stopped upon the addition of detection buffer containing streptavidin-XL665 ([…]) and TK antibody-Eu3+([…]). After a 60 min incubation at room temperature, the fluorescence at 665 nm and 620 nm was read on an Envision microplate reader (Perkin Elmer).
Kinase activity normalized to DMSO (100% activity) and reference compound at […] and (0% activity) was calculated using the fluorescence ratio […]. IC50 values were calculated by nonlinear regression analysis using a 4-parameter logistic curve fit in ActivityBase XE (IDBS).
Example D-2: Human MET (residues 956-1390; CarnaBio, 0.1 ng/well) was also incubated with enzymatic buffer (Cisbio) supplemented with 5 mM MgCl2, 1 mM DTT and 1 mM MnCl2. The mixture was added to the pre-plated compounds. […] The reaction was incubated at room temperature for 40 min and stopped upon the addition of SA-XL665 and TK-antibody both diluted in EDTA-containing kinase detection buffer (Cisbio). The kinase activity was calculated as stated above and the IC50 values were reported.

[3] = molecular target: Mer (phospho-Mer, MERTK-transfected 293A cells) (Homo sapiens (Human), UniProt Q12866); experiment: Mer autophosphorylation ELISA in transient transfected 293A cells (Example H); type: cell-based; details: cellular activity
Sequence of Mer (phospho-Mer, MERTK-transfected 293A cells) (Q12866 21-999): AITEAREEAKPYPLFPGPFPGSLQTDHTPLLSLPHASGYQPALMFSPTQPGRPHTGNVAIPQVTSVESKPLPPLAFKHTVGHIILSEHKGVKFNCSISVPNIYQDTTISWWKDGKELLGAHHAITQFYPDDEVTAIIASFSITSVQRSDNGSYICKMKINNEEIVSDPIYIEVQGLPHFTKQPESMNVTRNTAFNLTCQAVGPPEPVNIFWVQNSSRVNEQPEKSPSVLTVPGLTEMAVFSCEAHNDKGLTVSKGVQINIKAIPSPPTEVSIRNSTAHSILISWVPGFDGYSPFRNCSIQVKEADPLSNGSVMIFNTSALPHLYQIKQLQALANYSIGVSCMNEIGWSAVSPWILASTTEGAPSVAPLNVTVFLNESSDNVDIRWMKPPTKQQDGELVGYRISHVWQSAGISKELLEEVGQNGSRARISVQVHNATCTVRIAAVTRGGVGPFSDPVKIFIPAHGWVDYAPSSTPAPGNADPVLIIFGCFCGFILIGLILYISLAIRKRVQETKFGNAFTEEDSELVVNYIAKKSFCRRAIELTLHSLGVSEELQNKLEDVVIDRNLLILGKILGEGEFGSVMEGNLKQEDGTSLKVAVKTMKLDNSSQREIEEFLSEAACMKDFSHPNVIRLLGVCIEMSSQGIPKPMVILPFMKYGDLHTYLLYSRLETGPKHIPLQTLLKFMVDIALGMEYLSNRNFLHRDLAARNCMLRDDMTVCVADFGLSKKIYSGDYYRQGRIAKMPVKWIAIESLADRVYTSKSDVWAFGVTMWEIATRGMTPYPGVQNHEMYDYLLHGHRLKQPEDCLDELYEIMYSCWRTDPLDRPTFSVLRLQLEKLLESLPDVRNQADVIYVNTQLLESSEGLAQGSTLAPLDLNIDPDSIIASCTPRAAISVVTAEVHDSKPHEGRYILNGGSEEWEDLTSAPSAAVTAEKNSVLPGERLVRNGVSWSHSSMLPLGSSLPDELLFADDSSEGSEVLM
Method in brief: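 IC50 from phospho-Mer ELISA of MERTK-transfected 293A cell lysates after 1 h treatment with serially diluted compound in serum-free medium.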

[4] = molecular target: KDR (phospho-KDR, VEGF165-stimulated HUVEC cells) (Homo sapiens (Human), UniProt P35968); experiment: KDR autophosphorylation ELISA in HUVEC cells (Example G); type: cell-based; details: cellular activity
Sequence of KDR (phospho-KDR, VEGF165-stimulated HUVEC cells) (P35968 20-1356): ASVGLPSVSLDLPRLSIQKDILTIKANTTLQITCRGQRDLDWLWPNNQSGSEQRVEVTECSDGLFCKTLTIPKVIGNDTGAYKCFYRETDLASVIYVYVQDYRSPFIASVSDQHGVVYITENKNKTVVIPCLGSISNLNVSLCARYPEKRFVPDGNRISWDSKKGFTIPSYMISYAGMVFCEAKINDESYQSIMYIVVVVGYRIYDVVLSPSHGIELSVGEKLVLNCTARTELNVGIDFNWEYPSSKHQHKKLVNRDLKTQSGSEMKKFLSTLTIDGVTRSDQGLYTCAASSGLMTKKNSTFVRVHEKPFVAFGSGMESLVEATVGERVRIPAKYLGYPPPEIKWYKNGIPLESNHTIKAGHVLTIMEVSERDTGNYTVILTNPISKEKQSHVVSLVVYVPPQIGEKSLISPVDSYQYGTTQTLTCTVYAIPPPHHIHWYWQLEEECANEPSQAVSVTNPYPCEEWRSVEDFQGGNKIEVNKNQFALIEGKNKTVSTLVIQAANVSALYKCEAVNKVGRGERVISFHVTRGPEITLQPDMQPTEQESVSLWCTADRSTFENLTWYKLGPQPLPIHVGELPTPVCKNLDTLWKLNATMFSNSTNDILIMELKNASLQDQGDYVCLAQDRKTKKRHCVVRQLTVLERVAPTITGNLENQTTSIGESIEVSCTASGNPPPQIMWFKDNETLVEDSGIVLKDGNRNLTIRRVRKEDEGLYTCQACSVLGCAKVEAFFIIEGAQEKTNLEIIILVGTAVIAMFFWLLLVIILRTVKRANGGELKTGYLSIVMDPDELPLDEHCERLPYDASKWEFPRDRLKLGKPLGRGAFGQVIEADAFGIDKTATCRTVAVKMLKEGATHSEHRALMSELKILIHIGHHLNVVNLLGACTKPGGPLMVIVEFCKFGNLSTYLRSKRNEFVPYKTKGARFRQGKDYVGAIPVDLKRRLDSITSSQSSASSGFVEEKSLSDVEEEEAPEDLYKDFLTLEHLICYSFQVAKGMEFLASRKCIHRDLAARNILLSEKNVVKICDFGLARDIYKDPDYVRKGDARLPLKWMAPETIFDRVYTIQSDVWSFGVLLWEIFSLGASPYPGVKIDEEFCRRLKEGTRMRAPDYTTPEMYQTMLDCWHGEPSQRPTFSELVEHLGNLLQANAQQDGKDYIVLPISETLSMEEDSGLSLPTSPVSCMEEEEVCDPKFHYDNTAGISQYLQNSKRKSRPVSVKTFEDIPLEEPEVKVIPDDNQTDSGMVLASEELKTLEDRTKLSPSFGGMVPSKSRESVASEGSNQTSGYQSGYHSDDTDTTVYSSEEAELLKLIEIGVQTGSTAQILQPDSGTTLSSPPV
Method in brief: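 Inhibition of VEGF165-driven KDR autophosphorylation is measured in primary human umbilical vein endothelial cells after 24 h serum deprivation. Compound preincubation lasts 1 h before a 5-minute challenge with 100 ng/mL ligand, and phosphorylated receptor is then measured by ELISA in the lysates.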

[5] = Met autophosphorylation ELISA in PC-3 cells
[6] = protocol of Example D-2 (other compounds)
[7] = Mer autophosphorylation ELISA in transient transfected 293A cells
[8] = KDR autophosphorylation ELISA in HUVEC cells

Row | SMILES | IC50 [1, 5] [nM] | IC50 [2, 6] [nM] | IC50 [3, 7] [nM] | IC50 [4, 8] [nM] | IC50 ([2]; protocol of Example D-2) [nM] | IC50 ([1]; PC-3 cells) [nM] | IC50 ([3]; transfected 293A cells) [nM] | IC50 ([4]; HUVEC cells) [nM]
1 | COc1cc2nccc(Oc3ccc(NC(=O)c4cn(CC(F)(F)F)cc(-c5ccc(F)cc5)c4=O)cc3F)c2nc1OC [Compound 49, N-[4-[(6,7-Dimethoxy-1,5-naphthyridin-4-yl)oxy]-3-fluorophenyl]-5-(4-fluorophenyl)-4-oxo-1-(2,2,2-trifluoroethyl)pyridine-3-carboxamide] | < 100 | < 100 | < 100 | > 300 |  |  |  | 
2 | COc1cc2nccc(Oc3ccc(NC(=O)c4cn(C5CCC5)cc(-c5ccc(F)cc5)c4=O)cc3F)c2nc1OC [Compound 50, 1-Cyclobutyl-N-[4-[(6,7-dimethoxy-1,5-naphthyridin-4-yl)oxy]-3-fluorophenyl]-5-(4-fluorophenyl)-4-oxopyridine-3-carboxamide] | < 100 | < 100 | < 100 | 100 to 300 |  |  |  | 
3 | COc1cc2nccc(Oc3ccc(NC(=O)c4cn(-c5cnn(C)c5)cc(-c5ccc(F)cc5)c4=O)cc3F)c2nc1OC [Compound 51, N-[4-[(6,7-Dimethoxy-1,5-naphthyridin-4-yl)oxy]-3-fluorophenyl]-5-(4-fluorophenyl)-1-(1-methylpyrazol-4-yl)-4-oxopyridine-3-carboxamide] | < 100 | < 100 | < 100 | > 300 |  |  |  | 
4 | COc1cc2nccc(Oc3ccc(NC(=O)c4cn(C5CN(C(=O)OC(C)(C)C)C5)cc(-c5ccc(F)cc5)c4=O)cc3F)c2nc1OC [Compound 114, tert-Butyl 3-[3-[[4-[(6,7-dimethoxy-1,5-naphthyridin-4-yl)oxy]-3-fluorophenyl]carbamoyl]-5-(4-fluorophenyl)-4-oxopyridin-1-yl]azetidine-1-carboxylate] |  | < 100 |  |  |  |  |  | 
5 | Cc1ncc(C(=O)Nc2ccc(Oc3ccnc4cc(Br)cnc34)c(F)c2)c(O)c1-c1ccc(F)cc1 [Compound 133, N-[4-[(7-Bromo-1,5-naphthyridin-4-yl)oxy]-3-fluorophenyl]-5-(4-fluorophenyl)-4-hydroxy-6-methylpyridine-3-carboxamide] | 100 to 300 | < 100 | 100 to 300 | 100 to 300 |  |  |  | 
6 | COc1cc2nccc(Oc3ccc(NC(=O)c4cn(O)cc(-c5ccc(F)cc5)c4=O)cc3F)c2nc1OC [Compound 134, N-[4-[(6,7-Dimethoxy-1,5-naphthyridin-4-yl)oxy]-3-fluorophenyl]-5-(4-fluorophenyl)-1-hydroxy-4-oxopyridine-3-carboxamide] | > 300 | < 100 | 100 to 300 | < 100 |  |  |  | 
7 | COc1cc2nccc(Oc3ccc(NC(=O)c4cn(N=C(N(C)C)N(C)C)cc(-c5ccc(F)cc5)c4=O)cc3F)c2nc1OC [Compound 137, 1-[bis(Dimethylamino)methylideneamino]-N-[4-[(6,7-dimethoxy-1,5-naphthyridin-4-yl)oxy]-3-fluorophenyl]-5-(4-fluorophenyl)-4-oxopyridine-3-carboxamide] | < 100 | < 100 | < 100 | 100 to 300 |  |  |  | 
8 | COc1cnc2c(Oc3ccc(NC(=O)c4cn(C(C)C)cc(-c5ccc(F)cc5)c4=O)cc3)ccnc2c1 [Compound 145, 5-(4-Fluorophenyl)-N-[4-[(7-methoxy-1,5-naphthyridin-4-yl)oxy]phenyl]-4-oxo-1-propan-2-ylpyridine-3-carboxamide] | < 100 | < 100 | < 100 |  |  |  |  | 
9 | COc1cnc2c(Oc3ccc(NC(=O)c4c(C)nc(C)c(-c5ccc(F)cc5)c4O)cc3)ccnc2c1 [Compound 158, 5-(4-Fluorophenyl)-4-hydroxy-N-[4-[(7-methoxy-1,5-naphthyridin-4-yl)oxy]phenyl]-2,6-dimethylpyridine-3-carboxamide] | < 100 | < 100 | < 100 | < 100 |  |  |  | 

The next lines start with the values.

Row | IC50 [1, 5] [nM] | IC50 [2, 6] [nM] | IC50 [3, 7] [nM] | IC50 [4, 8] [nM] | IC50 ([2]; protocol of Example D-2) [nM] | IC50 ([1]; PC-3 cells) [nM] | IC50 ([3]; transfected 293A cells) [nM] | IC50 ([4]; HUVEC cells) [nM] | SMILES
10 | 100 to 300 | < 100 | < 100 | > 300 |  |  |  |  | COc1cc2nccc(Oc3ccc(NC(=O)c4cn(CCn5ccnc5)cc(-c5ccc(F)cc5)c4=O)cc3F)c2nc1OC [Compound 159, N-[4-[(6,7-Dimethoxy-1,5-naphthyridin-4-yl)oxy]-3-fluorophenyl]-5-(4-fluorophenyl)-1-(2-imidazol-1-ylethyl)-4-oxopyridine-3-carboxamide]
11 | 100 to 300 |  | < 100 | < 100 | < 100 |  |  |  | CNC(=O)c1cc2c(Oc3ccc(NC(=O)c4cnc(C)c(-c5ccc(F)cc5)c4O)cc3)ccnc2cc1OC [Compound 540, 4-[4-[[5-(4-fluorophenyl)-4-hydroxy-6-methylpyridine-3-carbonyl]amino]phenoxy]-7-methoxy-N-methylquinoline-6-carboxamide]
12 | < 100 |  | < 100 | < 100 | < 100 |  |  |  | COc1nc2c(Oc3ccc(NC(=O)c4cnc(C)c(-c5ccc(F)cc5)c4O)cc3F)ccnc2cc1-c1cccnc1 [Compound 604, N-[3-Fluoro-4-[(6-methoxy-7-pyridin-3-yl-1,5-naphthyridin-4-yl)oxy]phenyl]-5-(4-fluorophenyl)-4-hydroxy-6-methylpyridine-3-carboxamide hydrochloride]
13 |  |  |  |  |  | < 100 | < 100 | > 300 | COc1cnc2c(Oc3ccc(NC(=O)c4c(C)n(C)c(C)c(-c5ccc(F)cc5OC)c4=O)cc3F)ccnc2c1 [Compound 818, N-[3-fluoro-4-[(7-methoxy-1,5-naphthyridin-4-yl)oxy]phenyl]-5-(4-fluoro-2-methoxyphenyl)-1,2,6-trimethyl-4-oxopyridine-3-carboxamide]
14 |  |  |  |  |  | < 100 | < 100 | > 300 | COc1cnc2c(Oc3ccc(NC(=O)c4c(C)n(C)c(C)c(-c5ccc(F)c(C)c5)c4=O)cc3F)ccnc2c1 [Compound 819, N-[3-fluoro-4-[(7-methoxy-1,5-naphthyridin-4-yl)oxy]phenyl]-5-(4-fluoro-3-methylphenyl)-1,2,6-trimethyl-4-oxopyridine-3-carboxamide]
15 |  |  |  |  |  | < 100 | < 100 | > 300 | COc1cnc2c(Oc3ccc(NC(=O)c4c(C)n(C)c(C)c(-c5ccc(F)c(F)c5)c4=O)cc3F)ccnc2c1 [Compound 820, 5-(3,4-difluorophenyl)-N-[3-fluoro-4-[(7-methoxy-1,5-naphthyridin-4-yl)oxy]phenyl]-1,2,6-trimethyl-4-oxopyridine-3-carboxamide]
16 |  |  |  |  |  | < 100 | < 100 | > 300 | COc1cc2nccc(Oc3ccc(NC(=O)c4c(C)n(C)c(C)c(-c5ccc(F)c(F)c5)c4=O)cc3F)c2nc1OC [Compound 822, 5-(3,4-difluorophenyl)-N-[4-[(6,7-dimethoxy-1,5-naphthyridin-4-yl)oxy]-3-fluorophenyl]-1,2,6-trimethyl-4-oxopyridine-3-carboxamide]
17 |  |  |  |  |  | < 100 | < 100 | > 300 | COc1cc2nccc(Oc3ccc(NC(=O)c4c(C)n(C)c(C)c(-c5ccc(F)cc5F)c4=O)cc3F)c2nc1OC [Compound 823, 5-(2,4-difluorophenyl)-N-[4-[(6,7-dimethoxy-1,5-naphthyridin-4-yl)oxy]-3-fluorophenyl]-1,2,6-trimethyl-4-oxopyridine-3-carboxamide]
18 |  |  |  |  |  | < 100 | < 100 | > 300 | COc1cnc2c(Oc3ccc(NC(=O)c4c(C)n(C)c(C)c(-c5ccc(F)cc5F)c4=O)cc3F)ccnc2c1 [Compound 824, 5-(2,4-difluorophenyl)-N-[3-fluoro-4-[(7-methoxy-1,5-naphthyridin-4-yl)oxy]phenyl]-1,2,6-trimethyl-4-oxopyridine-3-carboxamide]
